Experimental data published in US20250306032A1, “METHODS FOR IDENTIFYING REACTIVE FUNCTIONAL CYSTEINES IN NUCLEAR PROTEINS” (Talus Bioscience, Inc., priority 2022, published 2025).

Key:
Type in all cases: cell-based
CTCF = target: T1, CTCF (Homo sapiens, UniProt P49711); assay: Movement of transcription factor between ChESS fractions after NM-IAA treatment; settings: ChESS fractionation after NM-IAA treatment
T1 construct: endogenous in cells; host or cells: THP-1
T1 sequence (P49711 1-727): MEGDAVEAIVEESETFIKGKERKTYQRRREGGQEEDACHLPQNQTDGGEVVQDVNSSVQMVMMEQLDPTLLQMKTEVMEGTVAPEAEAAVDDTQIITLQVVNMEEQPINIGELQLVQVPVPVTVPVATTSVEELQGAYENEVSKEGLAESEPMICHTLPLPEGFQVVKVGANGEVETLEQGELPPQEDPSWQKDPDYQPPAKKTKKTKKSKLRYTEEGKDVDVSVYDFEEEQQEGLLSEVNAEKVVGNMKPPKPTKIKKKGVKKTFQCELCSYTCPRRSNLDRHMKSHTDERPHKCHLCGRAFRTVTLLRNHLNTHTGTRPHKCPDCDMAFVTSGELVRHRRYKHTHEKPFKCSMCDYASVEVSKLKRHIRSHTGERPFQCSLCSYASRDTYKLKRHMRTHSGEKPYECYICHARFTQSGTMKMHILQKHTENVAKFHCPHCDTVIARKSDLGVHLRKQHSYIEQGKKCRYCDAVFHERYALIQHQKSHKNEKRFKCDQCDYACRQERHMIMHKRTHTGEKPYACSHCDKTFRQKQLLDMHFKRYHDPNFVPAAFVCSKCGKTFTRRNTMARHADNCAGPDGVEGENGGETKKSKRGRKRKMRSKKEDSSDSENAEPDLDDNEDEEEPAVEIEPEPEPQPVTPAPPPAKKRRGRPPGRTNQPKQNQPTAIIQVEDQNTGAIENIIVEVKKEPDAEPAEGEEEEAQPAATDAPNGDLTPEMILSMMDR
Experimental: Five million cells, from leukemia, myeloma, or other cancer cell cultures, were treated with 12.5 μM n-methyl iodoacetamide (NM-IAA) in triplicate for 4 hours. The cells were then washed with phosphate-buffered saline (PBS) and fractionated using chromatin enriching salt separation (ChESS). ChESS used four sequential buffer washes of increasing ionic strength to separate the cellular proteome into cytosolic-, nucleoplasm-, euchromatin-, and heterochromatin-enriched fractions, as outlined in FIG. 1. Each of the fractions was digested using trypsin and analyzed using a data-dependent acquisition (DDA) strategy on an Evosep One-ThermoFisher Exploris 480 orbitrap platform. The results were analyzed using the Comet search tool with the mass of the NM-IAA addition as a variable modification on cysteine residues, then filtered at a 1% false discovery rate with Peptide Prophet or mokapot. DDA results were quantified with FlashLFQ. Each sample was also acquired using a data independent acquisition (DIA) approach on the same mass spectrometer in order to accurately quantify the peptides and proteins in each sample. DIA samples were analyzed using EncyclopeDIA with a spectral library that was generated using the results from DDA analysis and Comet search results or using a predicted spectral library from Prosit. […]

[1] = target: T2, CCCTC-binding factor (CTCF) (Homo sapiens, UniProt P49711); assay: Reactive cysteine identification by ChESS fractionation and mass spectrometry in THP-1 cells; settings: 12.5 μM, 4 hours, mass spectrometry
T2 construct: endogenous in cells; host or cells: THP-1
T2 sequence (P49711 1-727): T1 sequence (P49711 1-727)
Experimental: Five million cells, from leukemia, myeloma, or other cancer cell cultures, were treated with 12.5 μM n-methyl iodoacetamide (NM-IAA) in triplicate for 4 hours. The cells were then washed with phosphate-buffered saline (PBS) and fractionated using chromatin enriching salt separation (ChESS). ChESS used four sequential buffer washes of increasing ionic strength to separate the cellular proteome into cytosolic-, nucleoplasm-, euchromatin-, and heterochromatin-enriched fractions, as outlined in FIG. 1. Each of the fractions was digested using trypsin and analyzed using a data-dependent acquisition (DDA) strategy on an Evosep One-ThermoFisher Exploris 480 orbitrap platform. The results were analyzed using the Comet search tool with the mass of the NM-IAA addition as a variable modification on cysteine residues, then filtered at a 1% false discovery rate with Peptide Prophet or mokapot. DDA results were quantified with FlashLFQ. Each sample was also acquired using a data independent acquisition (DIA) approach on the same mass spectrometer in order to accurately quantify the peptides and proteins in each sample. DIA samples were analyzed using EncyclopeDIA with a spectral library that was generated using the results from DDA analysis and Comet search results or using a predicted spectral library from Prosit.
THP-1 acute monocytic leukemia cells were grown to 95% viability. […]

[2] = target: T3, poly(ADP-ribose) polymerase-1 (PARP1) (Homo sapiens, UniProt P09874); assay: Reactive cysteine identification with Biotin-IA in THP-1 cells (mass spectrum); settings: 10 μM
T3 construct: endogenous in cells; host or cells: THP-1
Experimental: The mass shift associated with NM-IAA is 71.03 Dalton (Da). […] THP-1 cells were treated with 10 μM biotin polyethyleneoxide iodoacetamide (Biotin-IA). Biotin-IA reacted with a cysteine in the peptide SDAYYCTGDVTAWTK (SEQ ID NO: 2) from the poly(ADP-ribose) polymerase-1 (PARP1) protein.

T3 sequence (P09874 whole entry): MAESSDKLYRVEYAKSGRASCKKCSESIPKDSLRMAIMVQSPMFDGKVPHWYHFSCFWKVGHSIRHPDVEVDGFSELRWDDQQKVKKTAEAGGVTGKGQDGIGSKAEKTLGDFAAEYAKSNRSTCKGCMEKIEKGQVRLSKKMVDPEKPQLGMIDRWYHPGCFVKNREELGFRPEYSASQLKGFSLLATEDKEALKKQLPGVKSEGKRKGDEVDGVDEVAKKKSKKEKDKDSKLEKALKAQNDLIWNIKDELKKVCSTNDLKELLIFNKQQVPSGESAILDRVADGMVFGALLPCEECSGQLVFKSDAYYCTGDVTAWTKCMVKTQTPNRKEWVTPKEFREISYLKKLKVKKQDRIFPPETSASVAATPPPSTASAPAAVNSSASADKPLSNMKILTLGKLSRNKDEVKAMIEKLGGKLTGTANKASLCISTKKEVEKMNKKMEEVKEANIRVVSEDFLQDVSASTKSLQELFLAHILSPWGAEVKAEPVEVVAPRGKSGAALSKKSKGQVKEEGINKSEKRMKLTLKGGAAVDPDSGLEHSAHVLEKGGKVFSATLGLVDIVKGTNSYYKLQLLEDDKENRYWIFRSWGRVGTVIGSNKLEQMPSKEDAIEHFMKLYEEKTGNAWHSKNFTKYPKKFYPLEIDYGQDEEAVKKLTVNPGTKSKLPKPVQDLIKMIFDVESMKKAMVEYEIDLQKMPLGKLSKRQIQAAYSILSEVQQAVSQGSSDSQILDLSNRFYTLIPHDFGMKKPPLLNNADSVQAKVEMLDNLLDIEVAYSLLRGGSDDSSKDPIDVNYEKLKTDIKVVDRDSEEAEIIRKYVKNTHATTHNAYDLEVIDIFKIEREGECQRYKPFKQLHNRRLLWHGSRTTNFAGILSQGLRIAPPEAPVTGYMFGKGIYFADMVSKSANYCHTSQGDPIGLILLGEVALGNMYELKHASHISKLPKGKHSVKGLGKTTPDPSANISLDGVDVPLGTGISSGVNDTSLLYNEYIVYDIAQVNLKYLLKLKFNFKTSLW

Row | Compound | CTCF localisation in ChESS fractions after NM-IAA modification (CTCF) | modification of the cysteine in CTCF peptide YHDPNFVPAAFVCSK (SEQ ID NO: 1) [1] | reaction with a cysteine in PARP1 peptide SDAYYCTGDVTAWTK (SEQ ID NO: 2) [2]
1 | CNC(=O)CI [NM-IAA, n-methyl iodoacetamide] | ejected from heterochromatin and observed in the nucleoplasm fraction | modified | 
2 | biotin polyethyleneoxide iodoacetamide [Biotin-IA] |  |  | reacted
